Experimental data: patent publication US8314143B2, “Synthetic flavonoids and pharmaceutical compositions and therapeutic methods of treatment of HIV infection and other pathologies” (Florida A&M University, priority 2006, dated 2012)
Values joined by “and” are separate entries in the source; they are usually repeats but may differ in a detail not shown here. Equal entries are not always repeated. “Also recorded” adds a separate entry of the source.

What was measured:
Assay type in all cases: cell-based
H-9 cells = experiment: Cytoxicity on H-9 cells (drug inhibition, cell count); conditions: for H-9 Mean (drug inhibition): Table 4 summary; for % Inhibition Mean / Cells (×10^4) Mean / % Inhibition / Cells (×10^4): Exp. Dec. 05 to Dec. 09, 2005; for % Inhibition / Cells (×10^4): single replicates
Text: (§1) The purified and identified analogs were subjected to in vitro biological testing. […] These three congeners were further evaluated in H9 and PC3 cells. AZT was employed as a positive control in all of these experiments.

MCF-7 cells = experiment: Cytoxicity on MCF-7 cells (drug inhibition, cell count); parameters: Drug Inhibition on MCF-7 Cells / MCF-7 Mean (drug inhibition) / Drug inhibition on MCF-7 Cells Mean: unit not given here; conditions: MCF-7 cells; for Drug Inhibition on MCF-7 Cells: Table 8 summary
Text: as §1

PC-3 cells = experiment: Cytoxicity on PC-3 cells (drug inhibition, cell count); conditions: for Drug Inhibition on PC-3 cells: Table 7; for % Inhibition Mean / Cells (×10^4) Mean / % Inhibition / Cells (×10^4): Exp. Nov. 11 to Nov. 17, 2005; for % Inhibition / Cells (×10^4): single replicates
Text: The purified and identified analogs were subjected to in vitro biological testing.

[1] = 1 μg/ml, mean, Exp. Nov. 14 to Nov. 18, 2005
[2] = 1 μg/ml, single replicates, Exp. Nov. 14 to Nov. 18, 2005
[3] = 5 μg/ml, mean, Exp. Nov. 14 to Nov. 18, 2005
[4] = 5 μg/ml, single replicates, Exp. Nov. 14 to Nov. 18, 2005
[5] = 10 μg/ml, mean, Exp. Nov. 14 to Nov. 18, 2005
[6] = 10 μg/ml, single replicates, Exp. Nov. 14 to Nov. 18, 2005
[7] = 50 μg/ml, mean, Exp. Nov. 14 to Nov. 18, 2005
[8] = 50 μg/ml, single replicates, Exp. Nov. 14 to Nov. 18, 2005

## COc1ccc(C=CC(=O)c2cc(Br)cc(Br)c2O)cc1OC [CHBr 2M]
H-9 cells; 1 μg/ml
  H-9 Mean (drug inhibition): 5.64
  % Inhibition Mean: 5.64%
  Cells (×10^4) Mean: 47.42 ×10^4
  % Inhibition: 9.45% and 1.49% and 5.97%
  Cells (×10^4): 45.5 ×10^4 and 49.5 ×10^4 and 47.3 ×10^4
H-9 cells; 5 μg/ml
  H-9 Mean (drug inhibition): 49.59
  % Inhibition Mean: 49.59%
  Cells (×10^4) Mean: 25.33 ×10^4
  % Inhibition: 49.25% and 50.76% and 48.76%
  Cells (×10^4): 25.5 ×10^4 and 24.8 ×10^4 and 25.8 ×10^4
H-9 cells; 10 μg/ml
  H-9 Mean (drug inhibition): 65.01
  % Inhibition Mean: 65.01%
  Cells (×10^4) Mean: 17.58 ×10^4
  % Inhibition: 63.68% and 67.66% and 63.88%
  Cells (×10^4): 18.3 ×10^4 (2×) and 16.3 ×10^4
H-9 cells; 50 μg/ml
  H-9 Mean (drug inhibition): 76.95
  % Inhibition Mean: 76.95%
  Cells (×10^4) Mean: 11.58 ×10^4
  % Inhibition: 76.62% and 77.11%
  Cells (×10^4): 11.8 ×10^4 and 11.5 ×10^4 (2×)
H-9 cells; same conditions as AZT
  inhibitory activity compared to AZT: much superior inhibitory activities; also recorded: as good or somewhat better
MCF-7 cells
  response to MCF-7 cells in the different drug concentrations: good activities
MCF-7 cells; 1 μg/ml
  Drug Inhibition on MCF-7 Cells: 15.13
MCF-7 cells; [1]
  % Inhibition Mean: 15.13%
  Cells (×10^4) Mean: 49.08 ×10^4
MCF-7 cells; [2]
  % Inhibition: 15.71% and 10.95% and 18.73%
  Cells (×10^4): 48.6 ×10^4 and 51.5 ×10^4 and 47.0 ×10^4
MCF-7 cells; 5 μg/ml
  Drug Inhibition on MCF-7 Cells: 54.61
MCF-7 cells; [3]
  % Inhibition Mean: 54.61%
  Cells (×10^4) Mean: 26.25 ×10^4
MCF-7 cells; [4]
  % Inhibition: 53.31% and 56.34% and 54.18%
  Cells (×10^4): 27.0 ×10^4 and 25.3 ×10^4 and 26.5 ×10^4
MCF-7 cells; 10 μg/ml
  Drug Inhibition on MCF-7 Cells: 86.31
MCF-7 cells; [5]
  % Inhibition Mean: 86.31%
  Cells (×10^4) Mean: 7.92 ×10^4
MCF-7 cells; [6]
  % Inhibition: 87.46% and 84.44% and 87.03%
  Cells (×10^4): 7.3 ×10^4 and 9.0 ×10^4 and 7.5 ×10^4
MCF-7 cells; 50 μg/ml
  Drug Inhibition on MCF-7 Cells: 98.709
MCF-7 cells; [7]
  % Inhibition Mean: 98.70%
  Cells (×10^4) Mean: 0.75 ×10^4
MCF-7 cells; [8]
  % Inhibition: 98.70% and 98.27% and 99.14%
  Cells (×10^4): 0.8 ×10^4 and 1.0 ×10^4 and 0.5 ×10^4
MCF-7 cells; same conditions as AZT
  inhibitory activity compared to AZT: much superior inhibitory activities; also recorded: as good or somewhat better
PC-3 cells; 1 μg/ml
  Drug Inhibition on PC-3 cells: 47.1
  % Inhibition Mean: 27.64%
  Cells (×10^4) Mean: 70.92 ×10^4
  % Inhibition: 25.26% and 26.53% and 31.12%
  Cells (×10^4): 73.3 ×10^4 and 72.0 ×10^4 and 67.5 ×10^4
PC-3 cells; 5 μg/ml
  Drug Inhibition on PC-3 cells: 65.88
  % Inhibition Mean: 27.72%
  Cells (×10^4) Mean: 70.83 ×10^4
  Cells (×10^4): 75.5 ×10^4 and 68.0 ×10^4 and 69.0 ×10^4
PC-3 cells; 10 μg/ml
  Drug Inhibition on PC-3 cells: 78.04
  % Inhibition Mean: 26.28%
  Cells (×10^4) Mean: 72.25 ×10^4
PC-3 cells; 50 μg/ml
  Drug Inhibition on PC-3 cells: 89.50
  % Inhibition Mean: 42.86%
  Cells (×10^4) Mean: 56.00 ×10^4
  % Inhibition: 41.33% and 45.92%
  Cells (×10^4): 57.5 ×10^4 (2×) and 53.0 ×10^4
PC-3 cells; same conditions as AZT
  inhibitory activity compared to AZT: much superior inhibitory activities; also recorded: as good or somewhat better

## COc1ccc(C=CC(=O)c2cc(C)cc([N+](=O)[O-])c2O)cc1OC [CHNM 2M]
H-9 cells; 1 μg/ml
  H-9 Mean (drug inhibition): −15.75
  % Inhibition Mean: −15.75%
  Cells (×10^4) Mean: 58.17 ×10^4
  % Inhibition: −13.93% and −19.90% and −13.43%
  Cells (×10^4): 57.3 ×10^4 and 60.3 ×10^4 and 57.0 ×10^4
H-9 cells; 5 μg/ml
  H-9 Mean (drug inhibition): −16.58
  % Inhibition Mean: −16.58%
  Cells (×10^4) Mean: 58.58 ×10^4
  % Inhibition: −22.39% and −10.45% and −16.92%
  Cells (×10^4): 61.5 ×10^4 and 55.5 ×10^4 and 58.8 ×10^4
H-9 cells; 10 μg/ml
  H-9 Mean (drug inhibition): −1
  % Inhibition Mean: −1.00%
  Cells (×10^4) Mean: 50.75 ×10^4
  % Inhibition: −0.50% and −3.98% and 1.49%
  Cells (×10^4): 50.5 ×10^4 and 52.3 ×10^4 and 49.5 ×10^4
H-9 cells; 50 μg/ml
  H-9 Mean (drug inhibition): −11.44
  % Inhibition Mean: −11.44%
  Cells (×10^4) Mean: 56.00 ×10^4
  % Inhibition: −12.94% and −8.96% and −12.44%
  Cells (×10^4): 56.8 ×10^4 and 54.8 ×10^4 and 56.5 ×10^4
MCF-7 cells; 1 μg/ml
  Drug Inhibition on MCF-7 Cells: 6.77
MCF-7 cells; [1]
  % Inhibition Mean: 6.77%
  Cells (×10^4) Mean: 53.92 ×10^4
MCF-7 cells; [2]
  % Inhibition: 8.36% and 4.47% and 7.49%
  Cells (×10^4): 53.0 ×10^4 and 55.3 ×10^4 and 53.5 ×10^4
MCF-7 cells; 5 μg/ml
  Drug Inhibition on MCF-7 Cells: 20.17
MCF-7 cells; [3]
  % Inhibition Mean: 20.17%
  Cells (×10^4) Mean: 46.17 ×10^4
MCF-7 cells; [4]
  % Inhibition: 21.33% and 22.19% and 17.00%
  Cells (×10^4): 45.5 ×10^4 and 45.0 ×10^4 and 48.0 ×10^4
MCF-7 cells; 10 μg/ml
  Drug Inhibition on MCF-7 Cells: 31.27
MCF-7 cells; [5]
  % Inhibition Mean: 31.27%
  Cells (×10^4) Mean: 39.75 ×10^4
MCF-7 cells; [6]
  % Inhibition: 29.97% and 32.56% and 31.27%
  Cells (×10^4): 40.5 ×10^4 and 39.0 ×10^4 and 39.8 ×10^4
MCF-7 cells; 50 μg/ml
  Drug Inhibition on MCF-7 Cells: 42.07
MCF-7 cells; [7]
  % Inhibition Mean: 42.07%
  Cells (×10^4) Mean: 33.50 ×10^4
MCF-7 cells; [8]
  % Inhibition: 43.80% and 40.35% and 42.07%
  Cells (×10^4): 32.5 ×10^4 and 34.5 ×10^4 and 33.5 ×10^4
PC-3 cells; 1 μg/ml
  Drug Inhibition on PC-3 cells: 27.9
  % Inhibition Mean: 9.10%
  Cells (×10^4) Mean: 89.08 ×10^4
  % Inhibition: 9.69% and 17.09% and 0.51%
  Cells (×10^4): 88.5 ×10^4 and 81.3 ×10^4 and 97.5 ×10^4
PC-3 cells; 5 μg/ml
  Drug Inhibition on PC-3 cells: 39.36
  % Inhibition Mean: 36.05%
  Cells (×10^4) Mean: 62.67 ×10^4
  % Inhibition: 39.29% and 36.99% and 31.89%
  Cells (×10^4): 59.5 ×10^4 and 61.8 ×10^4 and 66.8 ×10^4
PC-3 cells; 10 μg/ml
  Drug Inhibition on PC-3 cells: 45.03
  % Inhibition Mean: 35.80%
  Cells (×10^4) Mean: 62.92 ×10^4
  % Inhibition: 36.22% and 38.52% and 32.65%
PC-3 cells; 50 μg/ml
  Drug Inhibition on PC-3 cells: 59.67
  % Inhibition Mean: 48.81%
  Cells (×10^4) Mean: 50.17 ×10^4
  % Inhibition: 49.23% and 46.43% and 50.77%

## COc1cc(C=CC(=O)c2cc(Cl)cc(Cl)c2O)cc(OC)c1OC [CHCl 3M]
MCF-7 cells; drug 1 μg/ml, mean of replicates
  Cells (×10^4) Mean: 53.17 ×10^4
MCF-7 cells; drug 1 μg/ml, mean of replicates, vs 2% DMSO
  % Inhibition Mean: −4.42%
MCF-7 cells; drug 1 μg/ml, single replicate count
  Cells (×10^4): 54.0 ×10^4 and 54.3 ×10^4 and 51.3 ×10^4
MCF-7 cells; drug 1 μg/ml, single replicate, vs 2% DMSO
  % Inhibition: −6.06% and −6.55% and −0.65%
MCF-7 cells; drug 5 μg/ml, mean of replicates
  Cells (×10^4) Mean: 52.75 ×10^4
MCF-7 cells; drug 5 μg/ml, mean of replicates, vs 2% DMSO
  % Inhibition Mean: −3.6%
MCF-7 cells; drug 5 μg/ml, single replicate count
  Cells (×10^4): 53.8 ×10^4 and 51.5 ×10^4 and 50.0 ×10^4
MCF-7 cells; drug 5 μg/ml, single replicate, vs 2% DMSO
  % Inhibition: −5.56% and −1.15% and −4.09%
MCF-7 cells; drug 10 μg/ml, mean of replicates
  Cells (×10^4) Mean: 43.75 ×10^4
MCF-7 cells; drug 10 μg/ml, mean of replicates, vs 2% DMSO
  % Inhibition Mean: 14.08%
MCF-7 cells; drug 10 μg/ml, single replicate count
  Cells (×10^4): 42.5 ×10^4 and 43.3 ×10^4 and 45.5 ×10^4
MCF-7 cells; drug 10 μg/ml, single replicate, vs 2% DMSO
  % Inhibition: 16.53% and 15.06% and 10.64%
MCF-7 cells; drug 50 μg/ml, mean of replicates
  Cells (×10^4) Mean: 31.50 ×10^4
MCF-7 cells; drug 50 μg/ml, mean of replicates, vs 2% DMSO
  % Inhibition Mean: 38.13%
MCF-7 cells; drug 50 μg/ml, single replicate count
  Cells (×10^4): 32.0 ×10^4 and 32.8 ×10^4 and 29.8 ×10^4
MCF-7 cells; drug 50 μg/ml, single replicate, vs 2% DMSO
  % Inhibition: 37.15% and 35.68% and 41.57%
